Test: cn = amount concentration of the nth substance listed, in mol/dm3
Conditions: 101.3 kPa, Liquid, Open capillary

[Cl-].[Cl-].[Cl-].[Cr+3] [chromium chloride] + O
binary diffusion coefficient [m2/s]
Conditions	c1 = 0.005	c1 = 0.008	c1 = 0.01	c1 = 0.02	c1 = 0.03	c1 = 0.05
298.15 K	1.33e-09	1.2e-09	1.17e-09	1.1e-09	1.06e-09	1.03e-09
303.15 K	1.85e-09	1.33e-09	1.31e-09	1.26e-09	1.2e-09	1.17e-09

From the NIST ThermoML archive (doi:10.1021/je050003x)
